Assay results reported in US8129371B2, “Thienopyrimidine and pyrazolopyrimidine compounds and their use as mTOR kinase and PI3 kinase inhibitors” (Wyeth LLC, priority 2007, dated 2012).

How the values were obtained:
Human mTOR (FLAG-TOR) = target: T1, Human mTOR (FLAG-TOR) (Homo sapiens, UniProt P42345); assay: Human mTOR kinase assay with purified enzyme, DELFIA format; format: biochemical
T1 construct: FLAG
How it was run: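 DELFIA readout: Eu-anti-P(T389)-S6K antibody (40 ng/mL, 1 h) on captured His6-S6K from the stopped reaction. Kinase step used purified FLAG-tagged human mTOR with test compound in HEPES (pH 7.4)/MnCl2/DTT buffer, 2 h at room temperature (linear 1–6 h), terminated by EDTA/EGTA.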

prostate line LNCap = assay: In vitro cell culture growth assay (MTS), LNCap; format: cell-based; details: Homo sapiens, LNCaP, 72 h, LNCap cells, three days after drug treatment
How it was run: (§1)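 The readout was MTS dye metabolism at 490 nm, taken after 3-day drug exposure that began the day after seeding. Growth was expressed as percent of vehicle-treated wells in the same plate.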

breast line MDA468 = assay: In vitro cell culture growth assay (MTS), MDA468; format: cell-based; details: Homo sapiens, 72 h, MDA468 cells, three days after drug treatment
How it was run: as §1

PI3K [1] = target: T2, PI3K (Homo sapiens, UniProt P42336); assay: Fluorescence polarization assay for PI3K; format: biochemical; details: PI3 Kinase α; read-out: PI3 Kinase α IC50
T2 construct: PI3 Kinase α IC50; other: PI3 Kinase α; other: PI3 Kinase α isoform, fluorescence polarization
T2 sequence (P42336 whole entry, canonical isoform): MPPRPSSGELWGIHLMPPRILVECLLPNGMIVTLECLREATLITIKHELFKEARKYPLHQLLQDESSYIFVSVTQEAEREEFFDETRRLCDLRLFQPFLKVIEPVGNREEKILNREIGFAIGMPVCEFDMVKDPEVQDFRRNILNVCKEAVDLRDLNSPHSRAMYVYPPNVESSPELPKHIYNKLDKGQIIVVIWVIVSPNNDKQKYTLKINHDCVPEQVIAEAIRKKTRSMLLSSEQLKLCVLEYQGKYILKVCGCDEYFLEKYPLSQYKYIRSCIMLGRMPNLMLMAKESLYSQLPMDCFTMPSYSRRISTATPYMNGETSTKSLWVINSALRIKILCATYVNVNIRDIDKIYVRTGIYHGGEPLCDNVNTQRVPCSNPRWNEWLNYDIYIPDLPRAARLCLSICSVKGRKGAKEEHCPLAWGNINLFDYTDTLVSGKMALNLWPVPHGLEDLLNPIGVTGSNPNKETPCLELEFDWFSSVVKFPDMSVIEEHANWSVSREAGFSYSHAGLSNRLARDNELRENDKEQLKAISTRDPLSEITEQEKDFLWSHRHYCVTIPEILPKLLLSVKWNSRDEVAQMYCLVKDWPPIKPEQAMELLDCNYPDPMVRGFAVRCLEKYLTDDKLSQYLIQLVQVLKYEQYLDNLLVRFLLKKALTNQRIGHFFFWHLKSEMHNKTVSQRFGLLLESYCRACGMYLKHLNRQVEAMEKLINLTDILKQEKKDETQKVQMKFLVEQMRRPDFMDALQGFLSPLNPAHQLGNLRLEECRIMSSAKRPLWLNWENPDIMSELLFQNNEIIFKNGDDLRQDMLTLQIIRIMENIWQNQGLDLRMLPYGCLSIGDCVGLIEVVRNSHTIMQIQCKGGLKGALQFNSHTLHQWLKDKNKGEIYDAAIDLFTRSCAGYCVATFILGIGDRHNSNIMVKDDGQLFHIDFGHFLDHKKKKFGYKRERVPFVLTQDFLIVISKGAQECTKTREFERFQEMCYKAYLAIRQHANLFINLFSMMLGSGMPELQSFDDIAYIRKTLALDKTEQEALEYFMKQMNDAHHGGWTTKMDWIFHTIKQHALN
How it was run: (§2)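 Fluorescence-polarization competition readout: after 30–60 min of PIP2/ATP turnover in 1% DMSO, a stop mix with GST-GRP (70 nM) and red probe (10 nM) was added.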

PI3K [2] = target: T3, PI3K (Homo sapiens, UniProt P48736); assay: Fluorescence polarization assay for PI3K; format: biochemical; details: PI3 Kinase γ; read-out: PI3 Kinase γ IC50
T3 construct: PI3 Kinase γ IC50; other: PI3 Kinase γ; other: PI3 Kinase γ isoform, fluorescence polarization
T3 sequence (P48736 whole entry, canonical isoform): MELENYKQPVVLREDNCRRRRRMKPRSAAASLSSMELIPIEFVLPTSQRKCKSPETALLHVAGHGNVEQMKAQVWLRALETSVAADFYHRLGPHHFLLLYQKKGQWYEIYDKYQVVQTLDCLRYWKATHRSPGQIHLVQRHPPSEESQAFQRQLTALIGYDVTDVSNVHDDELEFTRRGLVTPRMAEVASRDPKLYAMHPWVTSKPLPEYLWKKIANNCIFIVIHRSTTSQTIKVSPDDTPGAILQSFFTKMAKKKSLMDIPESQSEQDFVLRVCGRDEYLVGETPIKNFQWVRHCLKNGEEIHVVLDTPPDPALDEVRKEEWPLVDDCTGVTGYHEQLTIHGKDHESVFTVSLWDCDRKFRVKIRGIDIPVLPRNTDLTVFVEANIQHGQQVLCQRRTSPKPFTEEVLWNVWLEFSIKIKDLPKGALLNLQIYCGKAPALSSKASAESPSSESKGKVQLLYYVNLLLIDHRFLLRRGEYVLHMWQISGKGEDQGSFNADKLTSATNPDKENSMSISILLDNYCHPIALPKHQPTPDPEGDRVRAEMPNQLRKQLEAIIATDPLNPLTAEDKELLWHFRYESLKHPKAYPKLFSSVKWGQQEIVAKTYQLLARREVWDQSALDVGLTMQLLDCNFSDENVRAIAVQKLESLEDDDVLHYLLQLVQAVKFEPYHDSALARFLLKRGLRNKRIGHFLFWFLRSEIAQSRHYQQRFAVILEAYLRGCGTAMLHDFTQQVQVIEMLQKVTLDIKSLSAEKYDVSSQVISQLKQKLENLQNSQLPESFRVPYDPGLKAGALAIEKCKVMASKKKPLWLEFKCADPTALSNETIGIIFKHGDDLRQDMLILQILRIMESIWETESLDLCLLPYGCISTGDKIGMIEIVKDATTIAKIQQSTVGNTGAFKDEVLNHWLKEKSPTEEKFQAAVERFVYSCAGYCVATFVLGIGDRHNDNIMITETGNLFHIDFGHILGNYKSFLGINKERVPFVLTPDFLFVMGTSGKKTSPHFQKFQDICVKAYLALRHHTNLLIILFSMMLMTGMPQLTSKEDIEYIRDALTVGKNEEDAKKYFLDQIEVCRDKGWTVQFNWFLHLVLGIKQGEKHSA
How it was run: as §2

SMILES	IC50 (Human mTOR (FLAG-TOR))	IC50 (prostate line LNCap)	IC50 (PI3K [1])	IC50 (PI3K [2])	IC50 (breast line MDA468)
CCOC(=O)N1CCC(n2ncc3c(N4CC5CCC(C4)O5)nc(-c4ccc(NC(=O)NC5CCN(C(=O)OC(C)(C)C)CC5)cc4)nc32)CC1 [Example 37, ethyl 4-{6-[4-({[1-(tert-butoxycarbonyl)piperidin-4-yl]carbamoyl}amino)phenyl]-4-(8-oxa-3-azabicyclo[3.2.1]oct-3-yl)-1H-pyrazolo[3,4-d]pyrimidin-1-yl}piperidine-1-carboxylate]	37 nM	1000 nM	8620 nM	7390 nM	> 60000 nM
CCOC(=O)N1CCC(n2ncc3c(N4CC5CCC(C4)O5)nc(-c4ccc(NC(=O)NCCCNC)cc4)nc32)CC1 [Example 38, ethyl 4-{6-[4-({[3-(methylamino)propyl]carbamoyl}amino)phenyl]-4-(8-oxa-3-azabicyclo[3.2.1]oct-3-yl)-1H-pyrazolo[3,4-d]pyrimidin-1-yl}piperidine-1-carboxylate]	5.3 nM	4400 nM	1760 nM	11000 nM	7000 nM
CCOC(=O)N1CCC(n2ncc3c(N4CC5CCC(C4)O5)nc(-c4ccc(NC(=O)Nc5ccn[nH]5)cc4)nc32)CC1 [Example 39, ethyl 4-[4-(8-oxa-3-azabicyclo[3.2.1]oct-3-yl)-6-{4-[(1H-pyrazol-5-ylcarbamoyl)amino]phenyl}-1H-pyrazolo[3,4-d]pyrimidin-1-yl]piperidine-1-carboxylate]	96 nM	2600 nM	5700 nM	8880 nM	8000 nM
CCn1ncc2c(N3CC4CCC(C3)O4)nc(-c3ccc(NC(=O)NC)cc3)nc21 [Example 40, 1-{4-[1-ethyl-4-(8-oxa-3-azabicyclo[3.2.1]oct-3-yl)-1H-pyrazolo[3,4-d]pyrimidin-6-yl]phenyl}-3-methylurea]	0.58 nM	70 nM	270 nM	> 10000 nM	300 nM
CCn1ncc2c(N3CC4CCC(C3)O4)nc(-c3ccc(NC(=O)OCCO)cc3)nc21 [Example 45, 2-hydroxyethyl {4-[1-ethyl-4-(8-oxa-3-azabicyclo[3.2.1]oct-3-yl)-1H-pyrazolo[3,4-d]pyrimidin-6-yl]phenyl}carbamate]	1.2 nM	100 nM	1610 nM	> 10000 nM	270 nM
CCn1ncc2c(N3CC4CCC(C3)O4)nc(-c3ccc(NC(=O)NCCCNC)cc3)nc21 [Example 49, 1-{4-[1-ethyl-4-(8-oxa-3-azabicyclo[3.2.1]oct-3-yl)-1H-pyrazolo[3,4-d]pyrimidin-6-yl]phenyl}-3-[3-(methylamino)propyl]urea]	14 nM	1800 nM	968 nM	> 10000 nM	3000 nM
CNC(=O)Nc1ccc(-c2nc(N3CC4CCC(C3)O4)c3cnn(C)c3n2)cc1 [Example 50, 1-methyl-3-{4-[1-methyl-4-(8-oxa-3-azabicyclo[3.2.1]oct-3-yl)-1H-pyrazolo[3,4-d]pyrimidin-6-yl]phenyl}urea]	2 nM	170 nM	247 nM	6290 nM	700 nM
CCNC(=O)Nc1ccc(-c2nc(N3CC4CCC(C3)O4)c3cnn(C)c3n2)cc1 [Example 51, 1-ethyl-3-{4-[1-methyl-4-(8-oxa-3-azabicyclo[3.2.1]oct-3-yl)-1H-pyrazolo[3,4-d]pyrimidin-6-yl]phenyl}urea]	1.6 nM	46 nM	799 nM	7910 nM	390 nM
Cn1ncc2c(N3CC4CCC(C3)O4)nc(-c3ccc(NC(=O)NCCF)cc3)nc21 [Example 52, 1-(2-fluoroethyl)-3-{4-[1-methyl-4-(8-oxa-3-azabicyclo[3.2.1]oct-3-yl)-1H-pyrazolo[3,4-d]pyrimidin-6-yl]phenyl}urea]	1 nM	100 nM	877 nM	9500 nM	500 nM
Cn1ncc2c(N3CC4CCC(C3)O4)nc(-c3ccc(NC(=O)NC4CC4)cc3)nc21 [Example 53, 1-cyclopropyl-3-{4-[1-methyl-4-(8-oxa-3-azabicyclo[3.2.1]oct-3-yl)-1H-pyrazolo[3,4-d]pyrimidin-6-yl]phenyl}urea]	1.4 nM	72 nM	845 nM	8820 nM	800 nM
Cn1ncc2c(N3CC4CCC(C3)O4)nc(-c3ccc(NC(=O)NCCO)cc3)nc21 [Example 54, 1-(2-hydroxyethyl)-3-{4-[1-methyl-4-(8-oxa-3-azabicyclo[3.2.1]oct-3-yl)-1H-pyrazolo[3,4-d]pyrimidin-6-yl]phenyl}urea]	1.1 nM	410 nM	437 nM	5790 nM	1200 nM
Cn1ncc2c(N3CC4CCC(C3)O4)nc(-c3ccc(NC(=O)Nc4ccccc4)cc3)nc21 [Example 55, 1-{4-[1-methyl-4-(8-oxa-3-azabicyclo[3.2.1]oct-3-yl)-1H-pyrazolo[3,4-d]pyrimidin-6-yl]phenyl}-3-phenylurea]	0.66 nM	0.8 nM	74 nM	648 nM	32 nM
CN(C)CCNC(=O)Nc1ccc(-c2nc(N3CC4CCC(C3)O4)c3cnn(C)c3n2)cc1 [Example 58, 1-[2-(dimethylamino)ethyl]-3-{4-[1-methyl-4-(8-oxa-3-azabicyclo[3.2.1]oct-3-yl)-1H-pyrazolo[3,4-d]pyrimidin-6-yl]phenyl}urea]	99 nM	700 nM	307 nM	1120 nM	2800 nM

The next molecules have a lower IC50 (Human mTOR (FLAG-TOR)) than those just listed; values first:

IC50 (Human mTOR (FLAG-TOR))	IC50 (prostate line LNCap)	IC50 (PI3K [1])	IC50 (PI3K [2])	SMILES	IC50 (breast line MDA468)
0.47 nM	16 nM	1250 nM	12000 nM	CCNC(=O)Nc1ccc(-c2nc(N3CC4CCC(C3)O4)c3cnn(CC)c3n2)cc1 [Example 41, 1-ethyl-3-{4-[1-ethyl-4-(8-oxa-3-azabicyclo[3.2.1]oct-3-yl)-1H-pyrazolo[3,4-d]pyrimidin-6-yl]phenyl}urea]	80 nM
0.31 nM	31 nM	973 nM	> 10000 nM	CCn1ncc2c(N3CC4CCC(C3)O4)nc(-c3ccc(NC(=O)NCCF)cc3)nc21 [Example 42, 1-{4-[1-ethyl-4-(8-oxa-3-azabicyclo[3.2.1]oct-3-yl)-1H-pyrazolo[3,4-d]pyrimidin-6-yl]phenyl}-3-(2-fluoroethyl)urea]	120 nM
0.4 nM	52 nM	1760 nM	> 10000 nM	CCn1ncc2c(N3CC4CCC(C3)O4)nc(-c3ccc(NC(=O)NC4CC4)cc3)nc21 [Example 43, 1-cyclopropyl-3-{4-[1-ethyl-4-(8-oxa-3-azabicyclo[3.2.1]oct-3-yl)-1H-pyrazolo[3,4-d]pyrimidin-6-yl]phenyl}urea]	250 nM
0.34 nM	220 nM	416 nM	12000 nM	CCn1ncc2c(N3CC4CCC(C3)O4)nc(-c3ccc(NC(=O)NCCO)cc3)nc21 [Example 44, 1-{4-[1-ethyl-4-(8-oxa-3-azabicyclo[3.2.1]oct-3-yl)-1H-pyrazolo[3,4-d]pyrimidin-6-yl]phenyl}-3-(2-hydroxyethyl)urea]	370 nM
0.3 nM	0.8 nM	68 nM	1610 nM	CCn1ncc2c(N3CC4CCC(C3)O4)nc(-c3ccc(NC(=O)Nc4ccccc4)cc3)nc21 [Example 46, 1-{4-[1-ethyl-4-(8-oxa-3-azabicyclo[3.2.1]oct-3-yl)-1H-pyrazolo[3,4-d]pyrimidin-6-yl]phenyl}-3-phenylurea]	12 nM
0.11 nM	< 0.8 nM	160 nM	2720 nM	CCn1ncc2c(N3CC4CCC(C3)O4)nc(-c3ccc(NC(=O)Nc4cccnc4)cc3)nc21 [Example 47, 1-{4-[1-ethyl-4-(8-oxa-3-azabicyclo[3.2.1]oct-3-yl)-1H-pyrazolo[3,4-d]pyrimidin-6-yl]phenyl}-3-pyridin-3-ylurea]	1.2 nM
0.16 nM	< 0.8 nM	134 nM	1120 nM	CCn1ncc2c(N3CC4CCC(C3)O4)nc(-c3ccc(NC(=O)Nc4ccncc4)cc3)nc21 [Example 48, 1-{4-[1-ethyl-4-(8-oxa-3-azabicyclo[3.2.1]oct-3-yl)-1H-pyrazolo[3,4-d]pyrimidin-6-yl]phenyl}-3-pyridin-4-ylurea]	< 0.8 nM
0.27 nM	0.7 nM	227 nM	579 nM	Cn1ncc2c(N3CC4CCC(C3)O4)nc(-c3ccc(NC(=O)Nc4cccnc4)cc3)nc21 [Example 56, 1-{4-[1-methyl-4-(8-oxa-3-azabicyclo[3.2.1]oct-3-yl)-1H-pyrazolo[3,4-d]pyrimidin-6-yl]phenyl}-3-pyridin-3-ylurea]	5 nM
0.18 nM	0.8 nM	162 nM	782 nM	Cn1ncc2c(N3CC4CCC(C3)O4)nc(-c3ccc(NC(=O)Nc4ccncc4)cc3)nc21 [Example 57, 1-{4-[1-methyl-4-(8-oxa-3-azabicyclo[3.2.1]oct-3-yl)-1H-pyrazolo[3,4-d]pyrimidin-6-yl]phenyl}-3-pyridin-4-ylurea]	9 nM
